Source: patent US9796711B2, “Substituted pyrazolo[3,4-b]pyridin-6-carboxylic acids and method of use” (AbbVie S.àr.l., priority 2015, dated 2017)
pEC50: −log10 of the molar value.

Legend:
ΔF508-CFTR [1] = target: T1, ΔF508-CFTR (Homo sapiens, UniProt P13569, DEL508-508); assay: CFTR cell surface levels using HRP-tagged ΔF508-CFTR expressing CFBE cells, in the presence of a co-corrector; format: cell-based; conditions: HRP-tagged ΔF508-CFTR expressing CFBE cells, in the presence of 3 μM co-corrector; for pEC50: read-out: EC50
T1 construct: host or cells: CFBE41o-, doxycycline-inducible
Outline: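 Cells were seeded with 0.5 μg/mL doxycycline and held 68 h at 37 °C. Test compounds plus 3 μM co-corrector (final 0.1% DMSO) were then added for 20 h at 33 °C. Washed cells received HRP substrate, and luminescence was normalized between DMSO and 3 μM co-corrector controls.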

ΔF508-CFTR [2] = target: T1, ΔF508-CFTR; assay: CFTR cell surface levels using HRP-tagged ΔF508-CFTR expressing CFBE cells, intrinsic corrector capacity; format: cell-based; conditions: HRP-tagged ΔF508-CFTR expressing CFBE cells, intrinsic corrector capacity (no co-corrector), 33° C., 20 hours; for pEC50: read-out: EC50
Outline: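 Here the cells express ΔF508-CFTR with horseradish peroxidase inserted in extracellular loop 4, so only rescued channel at the surface gives luminescent signal. Compounds act on their own, 20 h at the reduced temperature of 33 °C; values are percent activity relative to DMSO and a 3 μM corrector.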

T1 sequence (P13569 with tags, fused parts or gaps DEL508-508): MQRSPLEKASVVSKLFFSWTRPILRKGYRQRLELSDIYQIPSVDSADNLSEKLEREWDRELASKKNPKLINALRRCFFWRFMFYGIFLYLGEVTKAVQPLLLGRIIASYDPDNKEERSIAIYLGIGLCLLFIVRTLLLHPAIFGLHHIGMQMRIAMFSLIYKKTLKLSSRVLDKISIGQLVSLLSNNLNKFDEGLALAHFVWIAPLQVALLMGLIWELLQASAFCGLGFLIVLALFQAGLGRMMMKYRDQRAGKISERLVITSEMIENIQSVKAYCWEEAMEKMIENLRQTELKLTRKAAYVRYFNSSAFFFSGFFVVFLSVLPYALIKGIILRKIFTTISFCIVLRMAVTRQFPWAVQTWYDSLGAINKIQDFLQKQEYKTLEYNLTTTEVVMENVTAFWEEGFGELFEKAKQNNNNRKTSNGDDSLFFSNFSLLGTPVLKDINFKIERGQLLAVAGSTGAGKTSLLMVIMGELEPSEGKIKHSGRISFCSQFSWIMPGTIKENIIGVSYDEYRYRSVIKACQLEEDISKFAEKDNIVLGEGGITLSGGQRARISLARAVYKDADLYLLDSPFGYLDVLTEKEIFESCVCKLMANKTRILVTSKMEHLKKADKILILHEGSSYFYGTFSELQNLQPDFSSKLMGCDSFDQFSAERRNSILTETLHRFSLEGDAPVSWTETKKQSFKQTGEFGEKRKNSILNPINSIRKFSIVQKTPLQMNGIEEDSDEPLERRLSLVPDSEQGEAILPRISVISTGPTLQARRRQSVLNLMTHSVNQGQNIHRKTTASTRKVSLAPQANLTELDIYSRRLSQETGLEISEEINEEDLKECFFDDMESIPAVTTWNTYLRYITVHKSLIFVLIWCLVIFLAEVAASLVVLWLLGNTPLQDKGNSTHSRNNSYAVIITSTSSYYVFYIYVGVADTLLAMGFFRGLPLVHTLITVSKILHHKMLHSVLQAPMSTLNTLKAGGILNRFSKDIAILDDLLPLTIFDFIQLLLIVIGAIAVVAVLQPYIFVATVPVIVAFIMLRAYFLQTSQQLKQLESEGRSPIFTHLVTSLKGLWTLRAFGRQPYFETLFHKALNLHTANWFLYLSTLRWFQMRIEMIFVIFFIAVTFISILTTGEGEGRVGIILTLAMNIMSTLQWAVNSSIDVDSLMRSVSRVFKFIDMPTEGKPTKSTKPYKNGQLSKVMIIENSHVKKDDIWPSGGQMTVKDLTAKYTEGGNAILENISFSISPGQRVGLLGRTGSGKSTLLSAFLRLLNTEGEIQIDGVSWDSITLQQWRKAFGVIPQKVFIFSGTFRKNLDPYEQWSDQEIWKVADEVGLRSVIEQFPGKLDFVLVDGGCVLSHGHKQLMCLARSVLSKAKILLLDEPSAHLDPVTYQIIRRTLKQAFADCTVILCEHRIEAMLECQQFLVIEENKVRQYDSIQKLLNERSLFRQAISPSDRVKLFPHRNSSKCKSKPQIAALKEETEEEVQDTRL

SMILES | % Activation (ΔF508-CFTR [1]) [%] | pEC50 (ΔF508-CFTR [1]) | % Activation (ΔF508-CFTR [2]) [%] | pEC50 (ΔF508-CFTR [2])
N#CC1CCN(C2CCN(c3cc(C(=O)O)nc4c3c(C3CCC3)nn4-c3ccc(F)cc3)CC2)C1 (stereo not shown) [compound 870, 4-[4-(3-cyanopyrrolidin-1-yl)piperidin-1-yl]-3-cyclobutyl-1-(4-fluorophenyl)-1H-pyrazolo[3,4-b]pyridine-6-carboxylic acid] | 611.45 | 6.77 | 304.4 | 5.98
N#CC1CCCN(C2CCN(c3cc(C(=O)O)nc4c3c(C3CCC3)nn4-c3ccc(F)cc3)CC2)C1 (stereo not shown) [compound 871, 4-(3-cyano[1,4′-bipiperidin]-1′-yl)-3-cyclobutyl-1-(4-fluorophenyl)-1H-pyrazolo[3,4-b]pyridine-6-carboxylic acid] | 681.7 | 6.81 | 355.1 | 6.56
O=C(O)c1cc(N2CCC(N3CCCC(F)C3)CC2)c2c(C3CCC3)nn(-c3ccc(F)cc3)c2n1 (stereo not shown) [compound 872, 3-cyclobutyl-4-(3-fluoro[1,4′-bipiperidin]-1′-yl)-1-(4-fluorophenyl)-1H-pyrazolo[3,4-b]pyridine-6-carboxylic acid] | 548.45 | 6.76 | 368.7 | 6.23
COC1CN(C2CCN(c3cc(C(=O)O)nc4c3c(C3CCC3)nn4-c3ccc(F)cc3)CC2)C1 [compound 873, 3-cyclobutyl-1-(4-fluorophenyl)-4-[4-(3-methoxyazetidin-1-yl)piperidin-1-yl]-1H-pyrazolo[3,4-b]pyridine-6-carboxylic acid] | 332.45 | 5.73 | 139.8 | 5.48
O=C(O)c1cc(N2CCC(N3CCCC(C(F)(F)F)C3)CC2)c2c(C3CCC3)nn(-c3ccc(F)cc3)c2n1 (stereo not shown) [compound 874, 3-cyclobutyl-1-(4-fluorophenyl)-4-[3-(trifluoromethyl)[1,4′-bipiperidin]-1′-yl]-1H-pyrazolo[3,4-b]pyridine-6-carboxylic acid] | 608.35 | 7.08 | 330.7 | 6.77
COC1CCCN(C2CCN(c3cc(C(=O)O)nc4c3c(C3CCC3)nn4-c3ccc(F)cc3)CC2)C1 (stereo not shown) [compound 875, 3-cyclobutyl-1-(4-fluorophenyl)-4-(3-methoxy[1,4′-bipiperidin]-1′-yl)-1H-pyrazolo[3,4-b]pyridine-6-carboxylic acid] | 450.3 | 6.09 | 270.7 | 5.80
CC1(C)CN(C2CCN(c3cc(C(=O)O)nc4c3c(C3CCC3)nn4-c3ccc(F)cc3)CC2)CCO1 [compound 876, 3-cyclobutyl-4-[4-(2,2-dimethylmorpholin-4-yl)piperidin-1-yl]-1-(4-fluorophenyl)-1H-pyrazolo[3,4-b]pyridine-6-carboxylic acid] | 562.35 | 6.57 | 324.4 | 6.52
CN1CCN(c2ccc(-c3cc(C(=O)O)nc4c3c(C3CCC3)nn4C3CCCCC3)cn2)CC1 [compound 877, 3-cyclobutyl-1-cyclohexyl-4-[6-(4-methylpiperazin-1-yl)pyridin-3-yl]-1H-pyrazolo[3,4-b]pyridine-6-carboxylic acid] | 374.57 | 6.22 | 162.65 | 6.46
CC(C)N1CCN(C2CCN(c3cc(C(=O)O)nc4c3c(C3CCC3)nn4-c3ccc(F)cc3)CC2)CC1 [compound 879, 3-cyclobutyl-1-(4-fluorophenyl)-4-{4-[4-(propan-2-yl)piperazin-1-yl]piperidin-1-yl}-1H-pyrazolo[3,4-b]pyridine-6-carboxylic acid] | 446.25 | 6.71 | 279.6 | 6.45
CC(C)N1CCN(C2CCN(c3cc(C(=O)O)nc4c3c(C3CCC3)nn4C3CCCCC3)CC2)CC1 [compound 880, 3-cyclobutyl-1-cyclohexyl-4-{4-[4-(propan-2-yl)piperazin-1-yl]piperidin-1-yl}-1H-pyrazolo[3,4-b]pyridine-6-carboxylic acid] | 446.95 | 6.16 | 259.5 | 6.77
CC(C)Oc1nn(C2CCCCC2)c2nc(C(=O)O)cc(-c3ccc(N4CCN(C)CC4)cc3)c12 [compound 883, 1-cyclohexyl-4-[4-(4-methylpiperazin-1-yl)phenyl]-3-[(propan-2-yl)oxy]-1H-pyrazolo[3,4-b]pyridine-6-carboxylic acid] | 380.9 | 6.62 | 160.6 | 6.48
CC(C)Oc1nn(C2CCCCC2)c2nc(C(=O)O)cc(-c3ccc(CN4CCN(C5CC5)CC4)cc3)c12 [compound 884, 1-cyclohexyl-4-{4-[(4-cyclopropylpiperazin-1-yl)methyl]phenyl}-3-[(propan-2-yl)oxy]-1H-pyrazolo[3,4-b]pyridine-6-carboxylic acid] | 377.6 | 6.67 | 140.6 | 6.53
O=C(O)c1cc(N2CCC(N3CCOCC3)CC2)c2c(C3CCC3)nn(-c3ccnc(O)c3)c2n1 [compound 885, 3-cyclobutyl-1-(2-hydroxypyridin-4-yl)-4-[4-(morpholin-4-yl)piperidin-1-yl]-1H-pyrazolo[3,4-b]pyridine-6-carboxylic acid] | 255.5 | 5.61 | 66.2 | 5.48
O=C(O)c1cc(N2CCC(N3CCOCC3)CC2)c2c(C3CCC3)nn(-c3ccnc(OC(F)F)c3)c2n1 [compound 889, 3-cyclobutyl-1-[2-(difluoromethoxy)pyridin-4-yl]-4-[4-(morpholin-4-yl)piperidin-1-yl]-1H-pyrazolo[3,4-b]pyridine-6-carboxylic acid] | 449.8 | 6.62 | 229.2 | 6.39
CCOC(=O)N1CCN(C2CCN(c3cc(C(=O)O)nc4c3c(C3CCC3)nn4-c3ccc(F)cc3)CC2)CC1 [compound 891, 3-cyclobutyl-4-{4-[4-(ethoxycarbonyl)piperazin-1-yl]piperidin-1-yl}-1-(4-fluorophenyl)-1H-pyrazolo[3,4-b]pyridine-6-carboxylic acid] | 564.5 | 7.29 | 367.25 | 7.03
O=C(O)c1cc(CN2CCC(N3CCOCC3)CC2)c2c(C3CCC3)nn(-c3ccc(F)cc3)c2n1 [compound 893, 3-Cyclobutyl-1-(4-fluoro-phenyl)-4-(4-morpholin-4-yl-piperidin-1-ylmethyl)-1H-pyrazolo[3,4-b]pyridine-6-carboxylic acid] | 236.6 | 5.48 | 55.75 | 5.50
COCCN(C)C1CCN(c2cc(C(=O)O)nc3c2c(C2CCC2)nn3-c2ccc(F)cc2)CC1 [compound 895, 3-cyclobutyl-1-(4-fluorophenyl)-4-{4-[(2-methoxyethyl)(methyl)amino]piperidin-1-yl}-1H-pyrazolo[3,4-b]pyridine-6-carboxylic acid] | 429.4 | 5.48 | 178.2 | 5.89
COCCN1CCN(C2CCN(c3cc(C(=O)O)nc4c3c(C3CCC3)nn4-c3ccc(F)cc3)CC2)CC1 [compound 896, 3-cyclobutyl-1-(4-fluorophenyl)-4-{4-[4-(2-methoxyethyl)piperazin-1-yl]piperidin-1-yl}-1H-pyrazolo[3,4-b]pyridine-6-carboxylic acid] | 513.5 | 6.16 | 358.8 | 5.79
O=C(O)c1cc(N2CCC(N3CCN(C4COC4)CC3)CC2)c2c(C3CCC3)nn(-c3ccc(F)cc3)c2n1 [compound 899, 3-cyclobutyl-1-(4-fluorophenyl)-4-{4-[4-(oxetan-3-yl)piperazin-1-yl]piperidin-1-yl}-1H-pyrazolo[3,4-b]pyridine-6-carboxylic acid] | 351.9 | 6.51 | 210.9 | 5.51
CC(C)N1CCC2CN(c3cc(C(=O)O)nc4c3c(C3CCC3)nn4-c3ccc(F)cc3)CCC21 (stereo not shown) [compound 900, 3-cyclobutyl-1-(4-fluorophenyl)-4-[1-(propan-2-yl)octahydro-5H-pyrrolo[3,2-c]pyridin-5-yl]-1H-pyrazolo[3,4-b]pyridine-6-carboxylic acid] | 389.73 | 6.67 | 183.97 | 6.36
O=C(O)c1cc(N2CCC3C(CCN3C3CCC3)C2)c2c(C3CCC3)nn(-c3ccc(F)cc3)c2n1 (stereo not shown) [compound 901, 3-cyclobutyl-4-(1-cyclobutyloctahydro-5H-pyrrolo[3,2-c]pyridin-5-yl)-1-(4-fluorophenyl)-1H-pyrazolo[3,4-b]pyridine-6-carboxylic acid] | 432.3 | 6.82 | 199.2 | 7.06
O=C(O)c1cc(N2CCC3C(CCN3C3COC3)C2)c2c(C3CCC3)nn(-c3ccc(F)cc3)c2n1 (stereo not shown) [compound 902, 3-cyclobutyl-1-(4-fluorophenyl)-4-[1-(oxetan-3-yl)octahydro-5H-pyrrolo[3,2-c]pyridin-5-yl]-1H-pyrazolo[3,4-b]pyridine-6-carboxylic acid] | 411.75 | 6.94 | 193.9 | 6.64
